{"source": "patent US20100022562A1", "about": "“Use of Plant Growth Regulators to Reduce Abscisic Acid Related Plant Leaf Yellowing” (priority 2008, published 2010)", "type_in_all_cases": "in vivo", "key": {"Pansy plants [1]": {"test_system": "Pansy plants", "assay": "Pansy leaf transpiration rate (LI-1600 Steady State Porometer)", "conditions": "for Transpiration rate (% of control): Matrix Premium Rose, Table 16; for Transpiration inhibition: sufficient water", "procedure": "(§1) Uniform plants were selected for the study. Prior to chemical treatment, plants were saturated with water and then drained for about two hours. A total of 20 mL chemical solution, which is equivalent to about 10% of the cell volume, was applied to each plant with 3 mL solution foliar applied to canopy and 17 mL solution drench applied to root zone. Unless specified, watering of plants was stopped after chemical treatment.\n(§2) After chemical treatment, plants were arranged in a randomized complete block experimental design. The plants were rated daily for the extent of wilting on a scale from 1 (no wilting) to 4 (complete wilting) to generated a sales index rating. A rating of 2.5 was the point at which a plant was determined to be unmarketable and the previous day was recorded as the shelf life of that plant in days. Yellow leaf number was counted at 3 days after chemical treatment. Leaf transpiration rate was measured after treatment using a LI-1600 Steady State Porometer (LI-Cor, Lincoln, Nebr.). The transpiration rate of each treatment was calculated as the percentage of that of control at each day to reduce day-to-day variation caused by changes of environmental condition such as light intensity, humidity, and temperature."}, "Pansy plants [2]": {"test_system": "Pansy plants", "assay": "Pansy yellow leaf number (leaf yellowing)", "procedure": "(§3) All studies were conducted in the greenhouse at the research farm of Valent BioSciences Corporation (Long Grove, Ill.). Pansy plants were obtained either from local retailers as mature plants, or plugs from wholesale nurseries. Plugs of Pansy plants were transplanted into an 18-cell flat filled with Promix BX (available from Premier Horticulture Inc. Quakertown, Pa.) and grown for about 30 days prior to treatment. During growing periods, plants received daily irrigation and weekly fertilizer (1 g/L all purpose fertilizer 20-20-20, The Scotts Company, Marysville, Ohio).\nas §1\nas §2, with “Yellow leaf number was counted at 3 days after chemical treatment.” left out"}, "Pansy plants [3]": {"test_system": "Pansy plants", "assay": "Pansy shelf life under drought (daily wilting rating, sales index)", "procedure": "as §3, §1, §2"}, "Pansy plants [4]": {"test_system": "Pansy plants", "assay": "Plant elongation after gibberellin treatment", "conditions": "0.1 mg or 1 mg per plant; Delta Premium Pure White", "from_the_text": "GA4/7 reduced the number of yellow leaves more than GA3."}}, "data": [{"smiles": "C#CC1(C)CC(=O)C=C(C)C1(O)/C=C/C(C)=C\\C(=O)OC", "note": "(stereo not drawn) [PBI-429, 8′ acetylene-ABA methyl ester]", "values": [{"measurement": "Transpiration rate (% of control)", "setting": "Pansy plants [1]; 0.3 mg PBI-429, no water, day 1 after treatment", "value": "34 % of control"}, {"measurement": "Transpiration rate (% of control)", "setting": "Pansy plants [1]; 0.3 mg PBI-429, no water, day 2 after treatment", "value": "35 % of control"}, {"measurement": "Transpiration rate (% of control)", "setting": "Pansy plants [1]; 0.3 mg PBI-429, no water, day 3 after treatment", "value": "26 % of control"}, {"measurement": "Transpiration inhibition", "setting": "Pansy plants [1]; 0.3 mg PBI-429, through 3 days after treatment", "value": "greater than 50%"}, {"measurement": "Transpiration rate (% of control)", "setting": "Pansy plants [1]; 0.3 mg PBI-429, watered, day 1 after treatment", "value": "32 % of control"}, {"measurement": "Transpiration rate (% of control)", "setting": "Pansy plants [1]; 0.3 mg PBI-429, watered, day 2 after treatment", "value": "33 % of control"}, {"measurement": "Transpiration rate (% of control)", "setting": "Pansy plants [1]; 0.3 mg PBI-429, watered, day 3 after treatment", "value": "44 % of control"}, {"measurement": "Transpiration rate (% of control)", "setting": "Pansy plants [1]; 0.3 mg PBI-429, watered, day 4 after treatment", "value": "68 % of control"}, {"measurement": "Transpiration rate (% of control)", "setting": "Pansy plants [1]; 0.3 mg PBI-429, watered, day 5 after treatment", "value": "74 % of control"}, {"measurement": "Transpiration rate (% of control)", "setting": "Pansy plants [1]; 0.3 mg PBI-429, watered, day 7 after treatment", "value": "81 % of control"}, {"measurement": "Transpiration rate (% of control)", "setting": "Pansy plants [1]; 0.3 mg PBI-429, watered, day 10 after treatment", "value": "88 % of control"}, {"measurement": "Transpiration rate (% of control)", "setting": "Pansy plants [1]; 3 mg PBI-429, no water, day 1 after treatment", "value": "23 % of control"}, {"measurement": "Transpiration rate (% of control)", "setting": "Pansy plants [1]; 3 mg PBI-429, no water, day 2 after treatment", "value": "14 % of control"}, {"measurement": "Transpiration rate (% of control)", "setting": "Pansy plants [1]; 3 mg PBI-429, no water, day 3 after treatment", "value": "9 % of control"}, {"measurement": "Transpiration rate (% of control)", "setting": "Pansy plants [1]; 3 mg PBI-429, no water, day 4 after treatment", "value": "10 % of control"}, {"measurement": "Transpiration rate (% of control)", "setting": "Pansy plants [1]; 3 mg PBI-429, no water, day 5 after treatment", "value": "18 % of control"}, {"measurement": "Transpiration inhibition", "setting": "Pansy plants [1]; 3 mg PBI-429, through 10 days after treatment", "value": "greater than 50%"}, {"measurement": "Transpiration rate (% of control)", "setting": "Pansy plants [1]; 3 mg PBI-429, watered, day 1 after treatment", "value": "20 % of control"}, {"measurement": "Transpiration rate (% of control)", "setting": "Pansy plants [1]; 3 mg PBI-429, watered, day 2 after treatment", "value": "15 % of control"}, {"measurement": "Transpiration rate (% of control)", "setting": "Pansy plants [1]; 3 mg PBI-429, watered, day 3 after treatment", "value": "29 % of control"}, {"measurement": "Transpiration rate (% of control)", "setting": "Pansy plants [1]; 3 mg PBI-429, watered, day 4 after treatment", "value": "28 % of control"}, {"measurement": "Transpiration rate (% of control)", "setting": "Pansy plants [1]; 3 mg PBI-429, watered, day 5 after treatment", "value": "32 % of control"}, {"measurement": "Transpiration rate (% of control)", "setting": "Pansy plants [1]; 3 mg PBI-429, watered, day 7 after treatment", "value": "44 % of control"}, {"measurement": "Transpiration rate (% of control)", "setting": "Pansy plants [1]; 3 mg PBI-429, watered, day 10 after treatment", "value": "46 % of control"}, {"measurement": "Yellow leaf number", "setting": "Pansy plants [2]; 0.1 mg, Matrix Orange, drought, 3 d after treatment, Table 1", "value": 3}, {"measurement": "Yellow leaf number", "setting": "Pansy plants [2]; 0.3 mg, Clear Sky Yellow, drought, 3 d after treatment, Table 8", "value": 2.8}, {"measurement": "Yellow leaf number", "setting": "Pansy plants [2]; 0.3 mg, Crown Azure Blue, drought, 3 d after treatment, Table 9", "value": 4.8}, {"measurement": "Yellow leaf number", "setting": "Pansy plants [2]; 0.3 mg, Matrix Orange, drought, 3 d after treatment, Table 1", "value": 5}, {"measurement": "Yellow leaf number", "setting": "Pansy plants [2]; 0.3 mg, Matrix Orange, drought, 3 d after treatment, Table 2", "value": 9.0}, {"measurement": "Yellow leaf number", "setting": "Pansy plants [2]; 0.3 mg, Matrix Yellow, drought, 3 d after treatment, Table 7", "value": 9.7}, {"measurement": "Yellow leaf number", "setting": "Pansy plants [2]; 1 mg, Matrix Orange, drought, 3 d after treatment, Table 1", "value": 7}, {"measurement": "Yellow leaf number", "setting": "Pansy plants [2]; 3 mg PBI-429, no water, Whispers White, 3 d after treatment, Table 15", "value": 23.3}, {"measurement": "Yellow leaf number", "setting": "Pansy plants [2]; 3 mg, Clear Sky Yellow, drought, 3 d after treatment, Table 8", "value": 4.8}, {"measurement": "Yellow leaf number", "setting": "Pansy plants [2]; 3 mg, Crown Azure Blue, drought, 3 d after treatment, Table 9", "value": 7.7}, {"measurement": "Yellow leaf number", "setting": "Pansy plants [2]; 3 mg, Matrix Orange, drought, 3 d after treatment, Table 1", "value": 10}, {"measurement": "Yellow leaf number", "setting": "Pansy plants [2]; 3 mg, Matrix Yellow, drought, 3 d after treatment, Table 7", "value": 13.2}, {"measurement": "Shelf life", "setting": "Pansy plants [3]; 0.1 mg, Matrix Orange, drought, Table 1", "value": 5.5, "unit": "days"}, {"measurement": "Shelf life", "setting": "Pansy plants [3]; 0.3 mg PBI-429, no water, Whispers White, Table 15", "value": 3.8, "unit": "days"}, {"measurement": "Shelf life", "setting": "Pansy plants [3]; 0.3 mg, Clear Sky Yellow, drought, Table 8", "value": 6.5, "unit": "days"}, {"measurement": "Shelf life", "setting": "Pansy plants [3]; 0.3 mg, Crown Azure Blue, drought, Table 9", "value": 4.5, "unit": "days"}, {"measurement": "Shelf life", "setting": "Pansy plants [3]; 0.3 mg, Matrix Orange, drought, Table 1", "value": 5.8, "unit": "days"}, {"measurement": "Shelf life", "setting": "Pansy plants [3]; 0.3 mg, Matrix Orange, drought, Table 2", "value": 5.8, "unit": "days"}, {"measurement": "Shelf life", "setting": "Pansy plants [3]; 0.3 mg, Matrix Yellow, drought, Table 7", "value": 7.5, "unit": "days"}, {"measurement": "Shelf life", "setting": "Pansy plants [3]; 1 mg, Matrix Orange, drought, Table 1", "value": 7.0, "unit": "days"}, {"measurement": "Shelf life", "setting": "Pansy plants [3]; 3 mg PBI-429, no water, Whispers White, Table 15", "value": 7.2, "unit": "days"}, {"measurement": "Shelf life", "setting": "Pansy plants [3]; 3 mg, Clear Sky Yellow, drought, Table 8", "value": 8.7, "unit": "days"}, {"measurement": "Shelf life", "setting": "Pansy plants [3]; 3 mg, Crown Azure Blue, drought, Table 9", "value": 7.0, "unit": "days"}, {"measurement": "Shelf life", "setting": "Pansy plants [3]; 3 mg, Matrix Orange, drought, Table 1", "value": 8.3, "unit": "days"}, {"measurement": "Shelf life", "setting": "Pansy plants [3]; 3 mg, Matrix Orange, drought, Table 2", "value": 9.5, "unit": "days"}, {"measurement": "Shelf life", "setting": "Pansy plants [3]; 3 mg, Matrix Yellow, drought, Table 7", "value": 8.8, "unit": "days"}]}, {"smiles": "C=C1C[C@]23C[C@@]1(O)CC[C@H]2[C@@]12C=C[C@H](O)[C@@](C)(C(=O)O1)[C@H]2[C@@H]3C(=O)O", "note": "[GA3, gibberellin A3]", "values": [{"measurement": "Yellow leaf number", "setting": "Pansy plants [2]; 0.1 mg, Delta Premium Pure White, 3 days after treatment, Table 24", "value": 1.3}, {"measurement": "Yellow leaf number", "setting": "Pansy plants [2]; 0.1 mg, Delta Premium Pure White, 7 days after treatment, Table 24", "value": 3.8}, {"measurement": "Yellow leaf number", "setting": "Pansy plants [2]; 1 mg, Delta Premium Pure White, 3 days after treatment, Table 24", "value": 1.2}, {"measurement": "Yellow leaf number", "setting": "Pansy plants [2]; 1 mg, Delta Premium Pure White, 7 days after treatment, Table 24", "value": 3.7}, {"measurement": "Effect on plant elongation", "setting": "Pansy plants [4]", "value": "no apparent effect"}, {"measurement": "Shelf life", "setting": "Pansy plants [3]; 0.1 mg, Delta Premium Pure White, Table 24", "value": 4.3, "unit": "days"}, {"measurement": "Shelf life", "setting": "Pansy plants [3]; 1 mg, Delta Premium Pure White, Table 24", "value": 4.0, "unit": "days"}]}]}
